# Laboratory results published in patent US20160296606A1, “Cellular Factor-Containing Solution Compositions for the Treatment of Rhinovirus Infection and Symptoms” (Noveome Biotherapeutics, Inc., priority 2015, published 2016).
# Where a name gives a salt, the structure may show the parent alone.
# Key:
# [1] = test system: vascular permeability (histamine-induced); test: Evans Blue assay of vascular permeability, histamine with ACCS or CPM (Example 6); type: in vivo, rats (Sprague-Dawley); conditions: 198 μg total protein ACCS or 50 μg CPM
# Experimental: Method: […] The Evan's Blue dye binds to albumin and other plasma proteins present in the blood and circulates throughout the animal's entire vascular system. Increased vascular permeability results in extravasation from blood vessels and capillaries of the Evans Blue dye bound to plasma protein. […] After approximately 20 min, the animals were sacrificed, and an area of skin that included the entire injection site was removed with punch biopsy.
# [2] = test system: vascular permeability (histamine-induced); test: Miles assay, Evans Blue dye extravasation after intradermal injection (Example 5); type: in vivo, rat; conditions: 1 μg histamine alone intradermally (inducer of vascular permeability)
# Experimental: Method: One hundred μL of 5% Evans Blue Dye was administered intravenously to an approximately 260 gram male rat via a jugular vein catheter. The Evans Blue dye binds to albumin and other proteins present in the blood and circulates throughout the animal's entire vascular system. One hundred μL of various test articles were then injected intradermally on the flank of the animal forming a small vesicular bleb of the injected article under on the skin surface. Changes in local vascular permeability were observed by the development of a blue spot corresponding to the Evans Blue bound protein extravasate at the injection site. Results were recorded qualitatively through photograph. The changes in Evans Blue Dye extravasation was quantitatively measured by the excision of the blue skin sample after animal sacrifice and placing the excised skin sample in 1 mL of formamide in order to extract the dye. The dye was extracted over 48 hours at 60° C. The extracted dye was then read on a plate reader for absorbance measurement at 630 nm.
# The local extravasation of protein-bound Evans Blue Dye at the site of injection is correlated with the increase in vascular permeability. […] Saline and ACCS were also injected alone to serve as negative controls.
# [3] = test system: irritant (TPA) skin inflammation; test: Intralesional injection in irritant TPA skin (ear) inflammation in mice; type: in vivo
# Experimental: Method: Intralesional injection into the ear was given once daily to the following groups: 1. TPA+intralesional control; 2. TPA+intralesional ACCS; 3. TPA+intralesional kenalog (10 mg/ml) (a potent intralesional corticosteroid); 4. ACCS intralesional injection alone; 5. Saline sham injections to the normal untreated ear. The endpoints for the study were ear thickness and ear weight at the end of the experiment. The thicker the ear and the increased weight gain correlates with the degree of inflammation.
structure (smiles),measurement,setting,value
"CN(C)CCC(c1ccc(Cl)cc1)c1ccccn1 (centres unmarked) [CPM, chlorpheniramine maleate]",ABS 630 nm/μg tissue,[1]; histamine dose 0.05 μg intradermal,0.07 ABS 630 nm/μg tissue
same,ABS 630 nm/μg tissue,[1]; histamine dose 0.5 μg intradermal,0.10 ABS 630 nm/μg tissue
same,ABS 630 nm/μg tissue,[1]; histamine dose 1 μg intradermal,0.10 ABS 630 nm/μg tissue
same,ABS 630 nm/μg tissue,[1]; histamine dose 3 μg intradermal,0.11 ABS 630 nm/μg tissue
NCCc1c[nH]cn1 [histamine],OD 630 absorbance of extracted Evans Blue dye from tissue samples,[2],0.495 OD units
CC1(C)O[C@@H]2C[C@H]3[C@@H]4CCC5=CC(=O)C=C[C@]5(C)[C@@]4(F)[C@@H](O)C[C@]3(C)[C@]2(C(=O)CO)O1 [kenalog],injection site finding,[3]; intralesional injection 10 mg/ml into mouse ear,induced a hematoma at the site of injection
same,inflammation induced by TPA (ear thickness),"[3]; intralesional injection into the ear once daily, vs TPA+control",not a substantial difference in ear thickness
same,ear weight,"[3]; intralesional injection once daily, compared with TPA+control",no difference in ear weight
